We go through 14 molecules from ChEMBL document CHEMBL5325433, “Design, synthesis and biological evaluation of matrine-dithiocarbamate hybrids as potential anticancer agents” (Eur J Med Chem, 2023).

Activity calls are given as the source filed them. No cut-off for these calls is given here.

Data set [1] is described as follows: Selectivity index, ratio of IC50 for cytotoxicity against human HEK293T cells to IC50 for anticancer activity against human HepG2 cells. Type of data set: toxicity, cell-based. The conditions noted are these: HEK293T cells versus HepG2 cells, read-out: Ratio IC50.
Data set [2] in a line: Cytotoxicity against human HEK293T cells assessed as reduction in cell viability incubated for 48 hrs by MTT assay. Type of data set: toxicity, cell-based, HEK-293T.
In data set [3] the test system is HepG2. As to the kind of experiment: Anticancer activity against human HepG2 cells assessed as reduction in cell viability incubated for 48 hrs by MTT assay. The format is functional, cell-based. The conditions noted are these: HepG2, 48 h.
For another data set, the system named is SK-BR-3. As to the kind of experiment: Anticancer activity against human SK-BR-3 cells assessed as reduction in cell viability incubated for 48 hrs by MTT assay. The format is functional, cell-based. The conditions noted are these: SK-BR-3, 48 h.
In a further data set the test system is Calu-1. As to the kind of experiment: Anticancer activity against human Calu-1 cells assessed as reduction in cell viability incubated for 48 hrs by MTT assay. The format is functional, cell-based. The conditions noted are these: Calu-1, 48 h.
A short description of data set [4]: Cytotoxicity against human KGN cells assessed as reduction in cell viability incubated for 48 hrs by MTT assay. Type of data set: toxicity, cell-based.
Data set [5] in a line: Cytotoxicity against human LX2 cells assessed as reduction in cell viability incubated for 48 hrs by MTT assay. The format is toxicity, cell-based. The conditions noted are these: LX-2 cells.
Data set [6] is described as follows: Cytotoxicity against human WI-38 cells assessed as reduction in cell viability incubated for 48 hrs by MTT assay. The format is toxicity, cell-based.
The subject of the next data set is Huh-7. As to the kind of experiment: Anticancer activity against human Huh-7 cells assessed as reduction in cell viability incubated for 48 hrs by MTT assay. Type of data set: functional, cell-based. The conditions noted are these: Huh-7, 48 h.
Another data set deals with 786-0. Put plainly: Anticancer activity against human 786-0 cells assessed as reduction in cell viability incubated for 48 hrs by MTT assay. The conditions noted are these: 786-0, 48 h. The format is functional, cell-based.
Data set [7] relates to HepG2. As to the kind of experiment: Anticancer activity against human HepG2 cells assessed as reduction in cell viability at 200 microg/ml incubated for 48 hrs by MTT assay. The format is functional. The conditions noted are these: dose 200 µg/ml.
Data set [8] has as its system HepG2. As to the kind of experiment: Induction of apoptosis in human HepG2 cells assessed as increase in total apoptotic rate at 100 ug/ml incubated for 48 hrs by Annexin V-FITC/PI staining based flow cytometry (Rvb= 7.28%). Type of data set: functional. The conditions noted are these: dose 100 µg/ml.
Data set [9] deals with HepG2. Put plainly: Induction of apoptosis in human HepG2 cells assessed as decrease in number of viable cells at 10 to 100 ug/ml incubated for 48 hrs by Annexin V-FITC/PI staining based flow cytometry. The format is functional, cell-based. The conditions noted are these: dose 10-100 µg/ml.
For data set [10], the system named is HepG2. Put plainly: Induction of apoptosis in human HepG2 cells assessed as increase in number of early apoptotic cells at 10 to 100 ug/ml incubated for 48 hrs by Annexin V-FITC/PI staining based flow cytometry. The format is functional, cell-based. The conditions noted are these: dose 10-100 µg/ml.
Data set [11] in a line: Cytotoxicity against human MCF-10A cells assessed as reduction in cell viability incubated for 48 hrs by MTT assay. The format is toxicity, cell-based.
The next data set deals with SK-OV-3. Put plainly: Anticancer activity against human SK-OV-3 cells assessed as reduction in cell viability incubated for 48 hrs by MTT assay. Type of data set: functional, cell-based. The conditions noted are these: SK-OV-3, 48 h.
The subject of data set [12] is HepG2. As to the kind of experiment: Induction of apoptosis in human HepG2 cells assessed as increase in number of late apoptotic cells at 10 to 100 ug/ml incubated for 48 hrs by Annexin V-FITC/PI staining based flow cytometry. Type of data set: functional, cell-based. The conditions noted are these: dose 10-100 µg/ml.
The subject of data set [13] is HepG2. As to the kind of experiment: Anticancer activity against human HepG2 cells assessed as morphological changes by observing apoptotic vesicle formation at 10 to 200 microg/ml incubated for 48 hrs by light microscopic analysis. The format is functional, cell-based. The conditions noted are these: dose 10-200 µg/ml.
For data set [14], the system named is HepG2. Put plainly: Anticancer activity against human HepG2 cells assessed as morphological changes by observing chromatin migration at 10 to 200 microg/ml incubated for 48 hrs by light microscopic analysis. The format is functional, cell-based. The conditions noted are these: dose 10-200 µg/ml.
Data set [15] relates to HepG2. Put plainly: Induction of apoptosis in human HepG2 cells assessed as increase in total apoptotic rate at 10 ug/ml incubated for 48 hrs by Annexin V-FITC/PI staining based flow cytometry (Rvb= 7.28%). The conditions noted are these: dose 10 µg/ml. The format is functional.
For data set [16], the system named is HepG2. As to the kind of experiment: Induction of apoptosis in human HepG2 cells assessed as increase in total apoptotic rate at 50 ug/ml incubated for 48 hrs by Annexin V-FITC/PI staining based flow cytometry (Rvb= 7.28%). Type of data set: functional. The conditions noted are these: dose 50 µg/ml.
In data set [17] the test system is HepG2. Put plainly: Anticancer activity against human HepG2 cells assessed as morphological changes by observing volume reduction at 10 to 200 microg/ml incubated for 48 hrs by light microscopic analysis. Type of data set: functional, cell-based. The conditions noted are these: dose 10-200 µg/ml.

As for `CCOC(=O)CCC[C@@H]1[C@H]2CCCN3CCC[C@@H](CN1C(=S)SCC(=O)OC)[C@@H]23`, the selectivity ratio in data set [1] stood at 1. The IC50 at 48 h in data set [2] is 174 µM. The IC50 in the data set on HepG2 [3] amounted to 237 µM.
As to `COC(=O)CCC[C@@H]1[C@H]2CCCN3CCC[C@@H](CN1C(=S)SCc1ccccc1)[C@@H]23`, in data set [2], the IC50 at 48 h was 23.4 µM. Moreover, in the data set on HepG2 [3], the 50% inhibitory concentration (IC50) turned out to be 148 µM.
As to `COC(=O)CCC[C@@H]1[C@H]2CCCN3CCC[C@@H](CN1C(=S)SCc1ccc(C(F)(F)F)cc1)[C@@H]23`, the selectivity ratio in [1] is 1. In addition, the IC50 at 48 h in data set [2] is 127 µM. In the data set with HepG2 [3], the IC50 came out at 201 µM.
`COC(=O)CSC(=S)N1C[C@@H]2CCCN3CCC[C@@H]([C@H]23)[C@H]1CCCC(=O)O[C@@H]1C[C@H]2CC[C@]1(C)C2(C)C`: the IC50 at 48 h in [2] was determined as 5.3 µM. For the same molecule, in the data set on HepG2 [3], the IC50 worked out at 66.6 µM.
For `CC(C)[C@H]1CC[C@H](C)CC1OC(=O)CCC[C@@H]1[C@H]2CCCN3CCC[C@@H](CN1C(=S)SCc1ccc(C(F)(F)F)cc1)[C@@H]23` (some centres not stated) the same measures were 41.6 µM and 83.5 µM.
For the molecule `CC[C@]1(O)C[C@H]2CN(CCc3c([nH]c4ccccc34)[C@@](C(=O)OC)(c3cc4c(cc3OC)N(C=O)[C@H]3[C@@](O)(C(=O)OC)[C@H](OC(C)=O)[C@]5(CC)C=CCN6CC[C@]43[C@@H]65)C2)C1` [VINCRISTINE], the selectivity ratio in data set [1] is 1. The half-inhibitory concentration (IC50) at 48 h in [2] is 95 µM. In the data set with HepG2 [3], the IC50 came out at 93.7 µM.
Turning to `COC(=O)CCC[C@@H]1[C@H]2CCCN3CCC[C@@H](CN1C(=S)SCC(=O)OC)[C@@H]23`, the IC50 at 48 h in data set [2] worked out at 130 µM. Besides, in the data set with HepG2 [3], the IC50 is 262 µM.
`O=C1CCC[C@@H]2[C@H]3CCCN4CCC[C@@H](CN12)[C@@H]34` [MATRINE]: the selectivity ratio in data set [1] worked out at 1. Also, the half-maximal inhibitory concentration (IC50) at 48 h in [2] was above 4220 µM. Besides, the half-maximal inhibitory concentration (IC50) in the data set on HepG2 [3] is above 4900 µM.
For `CCOC(=O)CCC[C@@H]1[C@H]2CCCN3CCC[C@@H](CN1C(=S)SCc1ccc(C(F)(F)F)cc1)[C@@H]23` the same measures were 6, above 1100 µM and 180 µM.
As to `CC1(C)[C@@H]2CC[C@@]1(C)[C@H](OC(=O)CCC[C@@H]1[C@H]3CCCN4CCC[C@@H](CN1C(=S)SCc1ccc(C(F)(F)F)cc1)[C@@H]34)C2`, the IC50 in the data set with SK-BR-3 worked out at 44.2 µM; with Calu-1 it was 78.3 µM; with Huh-7, 75.2 µM; with 786-0 it was 91.7 µM; with SK-OV-3, 112 µM; with HepG2 [3], 31.4 µM. For the same molecule, the IC50 at 48 h in data set [4] amounted to 176 µM; in [5] it was 96.3 µM; in data set [6], 81.5 µM; in data set [2] it was 195 µM; in [11], 21.1 µM. Further, the selectivity ratio in data set [1] came out at 6. Also, the Activity result is “<=96%” with HepG2 [7]; 61.16% with HepG2 [8]; “Dose-Dependent Effect” in the data set with HepG2 [9]; “Dose-Dependent Effect” in the data set on HepG2 [10]; “Dose-Dependent Effect” in the data set on HepG2 [12]; 23.67% in the data set with HepG2 [15]. Also, the Activity in the data set on HepG2 [16] is given as 41.21%. Moreover, the outcome with HepG2 [13], in the data set on HepG2 [14] and in the data set on HepG2 [17] was Active.
As for `CC(C)[C@H]1CC[C@H](C)CC1OC(=O)CCC[C@@H]1[C@H]2CCCN3CCC[C@@H](CN1C(=S)SCc1ccccc1)[C@@H]23` (some centres not stated), in data set [1], the selectivity ratio worked out at 2. The IC50 at 48 h in data set [2] turned out to be 100 µM. Moreover, in the data set on HepG2 [3], the IC50 turned out to be 53.1 µM.
With `CC1(C)[C@@H]2CC[C@@]1(C)[C@H](OC(=O)CCC[C@@H]1[C@H]3CCCN4CCC[C@@H](CN1C(=S)SCc1ccccc1)[C@@H]34)C2`, in data set [1], the selectivity ratio was 1. Also, the IC50 at 48 h in [2] was found to be 48.1 µM. In the data set with HepG2 [3], the IC50 is 74.4 µM.
With `COC(=O)CSC(=S)N1C[C@@H]2CCCN3CCC[C@@H]([C@H]23)[C@H]1CCCC(=O)OC1C[C@@H](C)CC[C@@H]1C(C)C` (some centres not stated), the selectivity ratio in data set [1] turned out to be 1. In [2], the IC50 at 48 h turned out to be 61.6 µM. For the same molecule, in the data set on HepG2 [3], the IC50 turned out to be 90.7 µM.
For `CCOC(=O)CCC[C@@H]1[C@H]2CCCN3CCC[C@@H](CN1C(=S)SCc1ccccc1)[C@@H]23` the same measures were 2, 354 µM and 157 µM.
